Results: ChEMBL document CHEMBL1629674, “Surveillance of carbapenem-resistant Pseudomonas aeruginosa isolates from Puerto Rican Medical Center Hospitals: dissemination of KPC and IMP-18 beta-lactamases” (2009)

What was measured:
[1] = tested on: Pseudomonas aeruginosa; test: Antimicrobial activity against OprD overproducing Pseudomonas aeruginosa PAO1 expressing mexA and oprD by agar dilution method in presence of beta-lactamase inhibitor Tazobactam; assay type: functional
[2] = tested on: Pseudomonas aeruginosa; test: Antimicrobial activity against Pseudomonas aeruginosa PS2 with PFGE phenotype 10B obtained from urine of ICU patient by agar dilution method in presence of beta-lactamase inhibitor tazobactam; assay type: functional
[3] = tested on: Pseudomonas aeruginosa; test: Antimicrobial activity against Pseudomonas aeruginosa PS3 with PFGE phenotype 12 obtained from sputum of ICU patient by agar dilution method in presence of beta-lactamase inhibitor tazobactam; assay type: functional
[4] = tested on: Pseudomonas aeruginosa; test: Antimicrobial activity against Pseudomonas aeruginosa PS4 with PFGE phasotype 9B expressing beta-lactamase IMP-18 obtained from sputum of patient by agar dilution method in presence of beta-lactamase inhibitor Tazobactam; assay type: functional
[5] = tested on: Pseudomonas aeruginosa; test: Antimicrobial activity against Pseudomonas aeruginosa PS5 with PFGE phenotype 7A expressing beta-lactamase KPC-2 obtained from sputum of ICU patient by agar dilution method in presence of beta-lactamase inhibitor tazobactam; assay type: functional
[6] = tested on: Pseudomonas aeruginosa; test: Antimicrobial activity against Pseudomonas aeruginosa PS6A with PFGE phenotype 11A obtained from sputum of ICU patient by agar dilution method in presence of beta-lactamase inhibitor tazobactam; assay type: functional
[7] = tested on: Pseudomonas aeruginosa; test: Antimicrobial activity against Pseudomonas aeruginosa PS7A with PFGE phenotype 11D obtained from urine of ICU patient by agar dilution method in presence of beta-lactamase inhibitor tazobactam; assay type: functional
[8] = tested on: Pseudomonas aeruginosa; test: Antimicrobial activity against Pseudomonas aeruginosa PS9 with PFGE phenotype 3B obtained from sputum of patient by agar dilution method in presence of beta-lactamase inhibitor tazobactam; assay type: functional
[9] = tested on: Pseudomonas aeruginosa; test: Antimicrobial activity against Pseudomonas aeruginosa PS10 with PFGE phenotype 1A expressing beta-lactamase KPC-2 obtained from blood of patient by agar dilution method in presence of beta-lactamase inhibitor tazobactam; assay type: functional
[10] = tested on: Pseudomonas aeruginosa; test: Antimicrobial activity against Pseudomonas aeruginosa PS11A with PFGE phasotype 7A obtained from sputum of ICU patient by agar dilution method in presence of beta-lactamase inhibitor Tazobactam; assay type: functional
[11] = tested on: Pseudomonas aeruginosa; test: Antimicrobial activity against Pseudomonas aeruginosa PS12 with PFGE phasotype 7B obtained from sputum of patient by agar dilution method in presence of beta-lactamase inhibitor Tazobactam; assay type: functional
[12] = tested on: Pseudomonas aeruginosa; test: Antimicrobial activity against Pseudomonas aeruginosa PS13 with PFGE phenotype 11E obtained from sputum of ICU patient by agar dilution method in presence of beta-lactamase inhibitor tazobactam; assay type: functional
[13] = tested on: Pseudomonas aeruginosa; test: Antimicrobial activity against Pseudomonas aeruginosa PS14 with PFGE phenotype 10C obtained from sputum of ICU patient by agar dilution method in presence of beta-lactamase inhibitor tazobactam; assay type: functional
[14] = tested on: Pseudomonas aeruginosa; test: Antimicrobial activity against Pseudomonas aeruginosa PS15A with PFGE phasotype 10A obtained from blood of patient by agar dilution method in presence of beta-lactamase inhibitor Tazobactam; assay type: functional
[15] = tested on: Pseudomonas aeruginosa; test: Antimicrobial activity against Pseudomonas aeruginosa PS17B with PFGE phenotype 11D expressing beta-lactamase KPC-2 obtained from blood of ICU patient by agar dilution method in presence of beta-lactamase inhibitor tazobactam; assay type: functional
[16] = tested on: Pseudomonas aeruginosa; test: Antimicrobial activity against Pseudomonas aeruginosa PS18A with PFGE phenotype 11D obtained from CSF of ICU patient by agar dilution method in presence of beta-lactamase inhibitor tazobactam; assay type: functional
[17] = tested on: Pseudomonas aeruginosa; test: Antimicrobial activity against Pseudomonas aeruginosa PS19A with PFGE phenotype 11C obtained from urine of patient by agar dilution method in presence of beta-lactamase inhibitor tazobactam; assay type: functional
[18] = tested on: Pseudomonas aeruginosa; test: Antimicrobial activity against Pseudomonas aeruginosa PS20A with PFGE phenotype 11D obtained from skin of patient by agar dilution method in presence of beta-lactamase inhibitor tazobactam; assay type: functional
[19] = tested on: Pseudomonas aeruginosa; test: Antimicrobial activity against Pseudomonas aeruginosa PS21 with PFGE phenotype 11F obtained from skin of patient by agar dilution method in presence of beta-lactamase inhibitor tazobactam; assay type: functional
[20] = tested on: Pseudomonas aeruginosa; test: Antimicrobial activity against Pseudomonas aeruginosa PS22 with PFGE phenotype 3A obtained from urine of patient by agar dilution method in presence of beta-lactamase inhibitor tazobactam; assay type: functional
[21] = tested on: Pseudomonas aeruginosa; test: Antimicrobial activity against Pseudomonas aeruginosa PS23 with PFGE phasotype 4A expressing beta-lactamase KPC-2 obtained from blood of patient by agar dilution method in presence of beta-lactamase inhibitor Tazobactam; assay type: functional
[22] = tested on: Pseudomonas aeruginosa; test: Antimicrobial activity against Pseudomonas aeruginosa PS25 with PFGE phenotype 1A obtained from sputum of patient by agar dilution method in presence of beta-lactamase inhibitor tazobactam; assay type: functional
[23] = tested on: Pseudomonas aeruginosa; test: Antimicrobial activity against Pseudomonas aeruginosa PS26 with PFGE phenotype 3A expressing beta-lactamase OXA-2 obtained from sputum of ICU patient by agar dilution method in presence of beta-lactamase inhibitor tazobactam; assay type: functional
[24] = tested on: Pseudomonas aeruginosa; test: Antimicrobial activity against Pseudomonas aeruginosa PS28 with PFGE phenotype 6 expressing beta-lactamase KPC-5 obtained from skin of patient by agar dilution method in presence of beta-lactamase inhibitor tazobactam; assay type: functional
[25] = tested on: Pseudomonas aeruginosa; test: Antimicrobial activity against Pseudomonas aeruginosa PS29 with PFGE phenotype 11D obtained from sputum of patient by agar dilution method in presence of beta-lactamase inhibitor tazobactam; assay type: functional
[26] = tested on: Pseudomonas aeruginosa; test: Antimicrobial activity against Pseudomonas aeruginosa PS30 with PFGE phenotype 11D obtained from sputum of patient by agar dilution method in presence of beta-lactamase inhibitor tazobactam; assay type: functional
[27] = tested on: Pseudomonas aeruginosa; test: Antimicrobial activity against Pseudomonas aeruginosa PS31 with PFGE phenotype 11B obtained from skin of patient by agar dilution method in presence of beta-lactamase inhibitor tazobactam; assay type: functional
[28] = tested on: Pseudomonas aeruginosa; test: Antimicrobial activity against Pseudomonas aeruginosa PS33 with PFGE phasotype 9A obtained from blood of patient by agar dilution method in presence of beta-lactamase inhibitor Tazobactam; assay type: functional
[29] = tested on: Pseudomonas aeruginosa; test: Antimicrobial activity against Pseudomonas aeruginosa PS34 with PFGE phenotype 4A obtained from blood of ICU patient by agar dilution method in presence of beta-lactamase inhibitor tazobactam; assay type: functional
[30] = tested on: Pseudomonas aeruginosa; test: Antimicrobial activity against Pseudomonas aeruginosa PS35 with PFGE phenotype 11A obtained from urine of patient by agar dilution method in presence of beta-lactamase inhibitor tazobactam; assay type: functional
[31] = tested on: Pseudomonas aeruginosa; test: Antimicrobial activity against Pseudomonas aeruginosa PS36 with PFGE phenotype 11B obtained from urine of patient by agar dilution method in presence of beta-lactamase inhibitor tazobactam; assay type: functional
[32] = tested on: Pseudomonas aeruginosa; test: Antimicrobial activity against Pseudomonas aeruginosa PS37 with PFGE phasotype 11D obtained from sputum of patient by agar dilution method in presence of beta-lactamase inhibitor Tazobactam; assay type: functional
[33] = tested on: Pseudomonas aeruginosa; test: Antimicrobial activity against Pseudomonas aeruginosa PS39 with PFGE phenotype 8 expressing beta-lactamase IMP-18 obtained from urine of patient by agar dilution method in presence of beta-lactamase inhibitor tazobactam; assay type: functional
[34] = tested on: Pseudomonas aeruginosa; test: Antimicrobial activity against Pseudomonas aeruginosa PS40 with PFGE phenotype 5 expressing beta-lactamase KPC-2, OXA-2 obtained from urine of patient by agar dilution method in presence of beta-lactamase inhibitor tazobactam; assay type: functional
[35] = tested on: Pseudomonas aeruginosa; test: Antimicrobial activity against Pseudomonas aeruginosa PS41 with PFGE phenotype 11D obtained from urine of patient by agar dilution method in presence of beta-lactamase inhibitor tazobactam; assay type: functional
[36] = tested on: Pseudomonas aeruginosa; test: Antimicrobial activity against Pseudomonas aeruginosa PS43 with PFGE phasotype 2 expressing beta-lactamase KPC-2, OXA-2 obtained from skin of ICU patient by agar dilution method in presence of beta-lactamase inhibitor Tazobactam; assay type: functional
[37] = tested on: Pseudomonas aeruginosa; test: Antimicrobial activity against Pseudomonas aeruginosa PS44 with PFGE phenotype 13 expressing beta-lactamase IMP-18 obtained from blood of patient by agar dilution method in presence of beta-lactamase inhibitor tazobactam; assay type: functional
[38] = tested on: Pseudomonas aeruginosa; test: Antimicrobial activity against Pseudomonas aeruginosa PS1 with PFGE phenotype 9C negative for blaIMP, blaVIM and blaKPC obtained from sputum of patient by agar dilution method in presence of beta-lactamase inhibitor tazobactam

Measured: MIC

CCN1CCN(C(=O)N[C@@H](C(=O)N[C@@H]2C(=O)N3[C@@H]2SC(C)(C)[C@@H]3C(=O)O)c2ccccc2)C(=O)C1=O [PIPERACILLIN]
32 mg/L: [28] | [37]
128 mg/L: [23] | [24] | [33] | [34]
64 mg/L: [4] | [8]
8 mg/L: [3] | [14] | [38]
256 mg/L: [20] | [36]
4 mg/L: [1] | [2] | [13]
> 256 mg/L: all other assays above
